Experimental data taken from patent US9718790B2, “Triazine derivative and pharmaceutical composition having an analgesic activity comprising the same” (SHIONOGI & CO., LTD., priority 2010, dated 2017).
pIC50: −log10 of the molar value.

What was measured:
[1] = Solubility test (1% DMSO, artificial intestinal juice pH 6.8); assay type: physicochemical; details: artificial intestinal juice pH 6.8 with 1% DMSO, 25 °C, fassgf or other biorelevant, kinetic from dmso stock, artificial intestinal juice pH 6.8, 25 degrees Celsius
Procedure: 10 mmol/L compound solution was prepared using DMSO, and then 6 μL of the compound solution was added to 594 μL of artificial intestinal juice in pH 6.8 (to 250 mL of 0.2 mol/L potassium dihydrogen phosphate reagent solution was added 118 mL of 0.2 mol/L NaOH reagent solution and water to provide a final volume of 1000 mL). After standing at 25 degrees Celsius for 16 hours, the mixed solution was filtrated with suction. The filtrate was diluted twice with methanol/water ( 1/1) and then a concentration in the filtration was measured with HPLC or LC/MS/MS by the absolute calibration method.

CYP1A2 = CYP1A2 (Homo sapiens (Human), UniProt P05177); test: CYP inhibition test, pooled human hepatic microsome, 7-ethoxyresorufin O-deethylation; assay type: in vitro ADME; details: substrate ethoxyresorufin
Procedure: (§1) Using commercially available pooled human hepatic microsome, and employlng, as markers, 7-ethoxyresorufin O-deethylation (CYP1A2), tolbutamide methyl-hydroxylation (CYP2C9), mephenyloin 4′-hydroxylation (CYP2C19), dextromethorphan O-demethylation (CYP2D6), and terfenedine hydroxylation as typical substrate metabolism reactions of human main five CYP enzyme forms (CYP1A2, 2C9, 2C19, 2D6, 3A4), an inhibitory degree of each metabolite production amount by a test compound was assessed.
(§2) The reaction conditions were as follows: substrate, 0.5 μmol/L ethoxyresorufin (CYP1A2), 100 μmol/L tolbutamide (CYP2C9), 50 μmol/L S-mephenitoin (CYP2C19), 5 μmol/L dextromethorphan (CYP2D6), 1 μmol/L terfenedine (CYP3A4) reaction time, 15 minutes; reaction temperature, 37° C; enzyme, pooled human hepatic microsome 0.2 mg protein/mL; test drug concentration, 1.0, 5.0, 10, 20 μmol/L (four points).
(§3) Each five kinds of substrates, human hepatic microsome, or a test drug in 50 mmol/L Hepes buffer as a reaction solution was added to a 96-well plate at the composition as described above, NADPH, as a cofactor was added to initiate metabolism reactions as markers and, after the incubation at 37° C. for 15 minutes, a methanol/acetonitrile=1/1 (v/v) solution was added to stop the reaction. After the centrifugation at 3000 rpm for 15 minutes, resorufin (CYP1A2 metabolite) in the supernatant was quantified by a fluorescent multilabel counter and tributamide hydroxide (CYP2CP metabolite), mephenyloin 4′ hydroxide (CYP2C19 metabolite), […] (CYP2D6 metabolite), and terfenadine alcohol (CYP3A4 metabolite) were quantified by LC/MS/MS.

CYP2D6 = CYP2D6 (Homo sapiens (Human), UniProt P10635); test: CYP inhibition test, pooled human hepatic microsome, dextromethorphan O-demethylation; assay type: in vitro ADME; details: substrate dextromethorphan
Procedure: as §1, §2, §3

rat P2X3 receptor = rat P2X3 receptor (Rattus norvegicus (Rat), UniProt P49654); test: Evaluation of rat P2X3 receptor inhibitory activity in the presence of rat serum albumin (1% RSA); assay type: cell-based
Procedure: Rat P2X3 receptor gene (GenBank accession number NM_031075) was expressed in C6BU-1 cell. The cells stably expressing rat P2X3 were seeded in a 96-well microtiter plate at a :concentration of 8000 cells/well and cultured in the medium (8.3% fetal bovine serum, 8.3% horse serum, 1% antibiotic and antifungal in DMEM) for one day at 37° C. under 5% carbon dioxide atmosphere. In transiently expressing system, the C6BU-1 cells were seeded in a 96-well microtiter plate at a concentration of 2500 cells/well and cultured in the medium for one day at 37° C. under 5% carbon dioxide atmosphere. The plasmid was transfected into the cells using transfection reagent FuGENE6 (Roche). The transfected cells were cultured in the medium for one day at 37° C. under 5% carbon dioxide atmosphere. […] Measurement of fluorescence intensity by FDSS 3000 was started, and 40 μL of DMSO solutions containing 1% RSA (final concentrations) and different concentrations of the test compound as prepared by dilution with dilution buffer (20 mM HEPES, 137 mM NaCl, 2.7 mM KCl, 0.9 mM MgCl2, 5.0 mM CaCl2, 5.0 mM D-glucose, 2.5 mM probenecid, 0.1% Pluronic F-127, pH 7.5) were dispensed to each well through the built-in automatic dispenser. Five minutes after, 50 nM ATP solution (50 μL) prepared by dilution with the dilution buffer was dispensed through the built-in automatic dispenser, and the measurement of fluorescence intensity was continued for 3 min. For each well, the specific maximum fluorescence intensity was calculated as the ratio of the maximum fluorescence intensity after addition of the ATP solution to the fluorescence intensity at the starting of the measurement. […] FDSS software (Hamamatsu Photonics K.K.) was used for calculation of the specific maximum fluorescence intensity. IC50 was calculated using Microsoft Excel (Microsoft Corporation) and XLfit (idbs Ltd.).

human P2X3 receptor = human P2X3 receptor (Homo sapiens (Human), UniProt P56373); test: Evaluation of human P2X3 receptor inhibitory activity (Fluo-3 calcium fluorescence, FDSS 3000, ATP stimulation); assay type: cell-based;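 also: stimulus was 50 nM ATP with fluorescence followed for 3 min, and the response per well was peak post-ATP fluorescence divided by the reading at measurement start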
serum = test: Protein binding test (equilibrium dialysis, serum); assay type: in vitro ADME; details: 37° C., 24 hours, 2 μg/mL
Procedure: The unbound fraction the present compound in serum was measured using serum of various species.
The reactive conditions are as follows: Evaluation method, Equilibrium dialysis; Reaction time, 24 hours; Reaction temperature, 37° C.; Concentration of the present compound, 2 μg/mL.
The test solution was added to each serum and the mixture was agitated to prepare the serum samples at the concentration mentioned above. Each serum sample was added into one side or the cell and phosphate buffered saline (PBS) was added into the other side to perform equilibrium dialysis at 37° C. for 24 hours. Then, the concentration of the compounds in the samples that were obtained from both sides was measured by LC/MS/MS.
(Result) The ratio of PBS concentration to serum concentration is expressed as unbound fraction.

[2] = human P2X3 receptor, Test Example 1

Sequence of human P2X3 receptor (P56373 whole entry): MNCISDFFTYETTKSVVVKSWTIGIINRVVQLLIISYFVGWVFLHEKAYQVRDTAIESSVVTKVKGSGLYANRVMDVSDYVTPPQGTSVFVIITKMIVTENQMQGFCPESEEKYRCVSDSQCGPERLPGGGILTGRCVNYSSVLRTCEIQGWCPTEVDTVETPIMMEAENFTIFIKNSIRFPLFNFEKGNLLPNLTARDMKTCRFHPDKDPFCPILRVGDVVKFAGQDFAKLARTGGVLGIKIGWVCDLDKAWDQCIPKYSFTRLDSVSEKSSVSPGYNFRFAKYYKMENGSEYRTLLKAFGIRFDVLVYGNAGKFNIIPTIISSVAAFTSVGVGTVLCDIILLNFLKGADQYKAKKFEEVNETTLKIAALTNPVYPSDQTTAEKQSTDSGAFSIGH
Sequence of CYP2D6 (P10635 whole entry): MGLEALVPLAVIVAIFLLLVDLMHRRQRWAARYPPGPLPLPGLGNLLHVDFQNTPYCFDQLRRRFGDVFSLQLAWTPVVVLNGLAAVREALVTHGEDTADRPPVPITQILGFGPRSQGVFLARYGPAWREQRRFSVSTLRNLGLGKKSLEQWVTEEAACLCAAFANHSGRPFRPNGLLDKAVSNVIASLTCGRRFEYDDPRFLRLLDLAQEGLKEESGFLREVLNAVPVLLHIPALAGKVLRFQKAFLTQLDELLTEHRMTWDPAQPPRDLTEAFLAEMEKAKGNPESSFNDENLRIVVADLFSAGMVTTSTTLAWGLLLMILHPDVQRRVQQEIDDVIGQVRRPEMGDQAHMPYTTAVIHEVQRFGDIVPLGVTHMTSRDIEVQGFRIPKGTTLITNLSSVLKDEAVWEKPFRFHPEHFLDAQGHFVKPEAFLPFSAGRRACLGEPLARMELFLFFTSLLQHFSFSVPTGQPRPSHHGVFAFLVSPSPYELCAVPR
Sequence of rat P2X3 receptor (P49654 whole entry): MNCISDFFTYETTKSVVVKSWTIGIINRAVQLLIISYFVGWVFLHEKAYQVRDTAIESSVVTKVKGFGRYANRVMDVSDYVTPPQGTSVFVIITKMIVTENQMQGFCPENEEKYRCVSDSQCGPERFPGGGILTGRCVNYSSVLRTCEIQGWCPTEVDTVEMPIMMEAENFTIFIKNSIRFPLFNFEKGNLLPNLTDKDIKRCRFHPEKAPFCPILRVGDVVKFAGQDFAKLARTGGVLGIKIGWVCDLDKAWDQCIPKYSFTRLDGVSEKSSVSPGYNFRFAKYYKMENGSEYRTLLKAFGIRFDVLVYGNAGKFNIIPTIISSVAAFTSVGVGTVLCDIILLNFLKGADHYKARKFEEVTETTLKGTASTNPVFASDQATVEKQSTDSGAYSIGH
Sequence of CYP1A2 (P05177 whole entry): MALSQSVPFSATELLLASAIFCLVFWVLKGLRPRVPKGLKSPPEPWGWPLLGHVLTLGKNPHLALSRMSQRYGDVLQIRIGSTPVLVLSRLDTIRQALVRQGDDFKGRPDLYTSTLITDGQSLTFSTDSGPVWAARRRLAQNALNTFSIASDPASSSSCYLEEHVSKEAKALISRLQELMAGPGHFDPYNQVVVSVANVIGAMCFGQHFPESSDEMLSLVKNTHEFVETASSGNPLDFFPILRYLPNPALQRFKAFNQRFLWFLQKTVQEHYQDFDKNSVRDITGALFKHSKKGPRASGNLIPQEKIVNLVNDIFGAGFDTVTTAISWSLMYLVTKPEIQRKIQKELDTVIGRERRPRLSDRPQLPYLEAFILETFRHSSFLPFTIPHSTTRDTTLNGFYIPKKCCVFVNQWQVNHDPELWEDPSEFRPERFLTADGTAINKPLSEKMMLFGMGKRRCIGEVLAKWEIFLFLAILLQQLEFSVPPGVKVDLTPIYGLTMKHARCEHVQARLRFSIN

SMILES	solubility at 16 h [1] [µM]	pIC50 (CYP1A2)	pIC50 (CYP2D6)	rat P2X3 (+RSA) IC50 (rat P2X3 receptor) [nM]	pIC50 (human P2X3 receptor; [2])	unbound fraction (ratio of PBS concentration to serum concentration) (serum) [%]	pIC50 (human P2X3 receptor; C6BU-1 cells stably expressing human P2X3 receptor, Fluo-3 fluorescence, FDSS 3000)
C[C@@H](Cn1c(=O)[nH]/c(=N\c2ccc(OCC3CC3)cc2)n(Cc2ccc(Cl)cc2)c1=O)C(=O)O [Compound I-0837]	> 50	< 4.70	< 4.70	44	7.77	2.1	–
CCn1c(=O)[nH]/c(=N\c2ccc(Oc3ccnc(C(=O)O)c3)cc2)n(Cc2ccc(Cl)cc2)c1=O [Compound I-1788]	> 50	< 4.70	< 4.70	59	–	–	8.30
O=c1[nH]/c(=N\c2ccc(Oc3ccon3)cc2)n(Cc2ccc(Cl)cc2)c(=O)n1CC(CO)CO [Compound I-2291]	> 50	< 4.70	< 4.70	20	8.40	4.5	–
